Like-named read-outs stand apart in the source and are kept apart here.

What all share (format): biochemical
One test deals with T1, GST-Chk1 enzyme (Homo sapiens, UniProt O14757).
T1 sequence (O14757 1-476): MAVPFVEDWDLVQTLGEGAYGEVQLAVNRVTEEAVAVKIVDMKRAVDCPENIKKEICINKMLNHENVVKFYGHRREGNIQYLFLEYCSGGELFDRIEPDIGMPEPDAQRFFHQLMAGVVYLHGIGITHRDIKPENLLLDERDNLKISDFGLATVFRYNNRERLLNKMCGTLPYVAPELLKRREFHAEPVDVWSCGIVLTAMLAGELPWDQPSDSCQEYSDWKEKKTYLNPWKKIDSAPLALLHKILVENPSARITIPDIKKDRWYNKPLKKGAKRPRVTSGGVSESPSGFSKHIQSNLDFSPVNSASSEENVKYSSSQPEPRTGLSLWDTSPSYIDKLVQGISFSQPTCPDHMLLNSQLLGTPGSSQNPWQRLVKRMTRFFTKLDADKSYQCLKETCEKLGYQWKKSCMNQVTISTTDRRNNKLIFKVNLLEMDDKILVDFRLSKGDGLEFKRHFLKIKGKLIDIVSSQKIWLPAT
The test can be described thus: Chk1 kinase inhibition assay (33P phosphorylation of Chktide, filter plate). As to conditions: 0.01 mM ATP, 11 nM GST-Chk1, 40 minutes at 30° C. The procedure: The assay mixture containing the inhibitor and Chk1 enzyme was mixed together in a microtiter plate in a final volume of 50 μl and incubated for 40 minutes at 30° C.
The reaction was stopped by adding 50 μl of 50 mM phosphoric acid. 90 μl of the mixture was transferred to a pre-wetted 96-well Multiscreen MAPHNOB filtration plate (Millipore) and filtered on a vacuum manifold. […] The filtration plate was dried for 10 min at 65° C., scintillant added and phosphorylated peptide quantified in a scintillation counter (Trilux, PerkinElmer)

The target in the next test is T2, PDK1 enzyme (Homo sapiens, UniProt O15530).
T2 sequence (O15530 1-556): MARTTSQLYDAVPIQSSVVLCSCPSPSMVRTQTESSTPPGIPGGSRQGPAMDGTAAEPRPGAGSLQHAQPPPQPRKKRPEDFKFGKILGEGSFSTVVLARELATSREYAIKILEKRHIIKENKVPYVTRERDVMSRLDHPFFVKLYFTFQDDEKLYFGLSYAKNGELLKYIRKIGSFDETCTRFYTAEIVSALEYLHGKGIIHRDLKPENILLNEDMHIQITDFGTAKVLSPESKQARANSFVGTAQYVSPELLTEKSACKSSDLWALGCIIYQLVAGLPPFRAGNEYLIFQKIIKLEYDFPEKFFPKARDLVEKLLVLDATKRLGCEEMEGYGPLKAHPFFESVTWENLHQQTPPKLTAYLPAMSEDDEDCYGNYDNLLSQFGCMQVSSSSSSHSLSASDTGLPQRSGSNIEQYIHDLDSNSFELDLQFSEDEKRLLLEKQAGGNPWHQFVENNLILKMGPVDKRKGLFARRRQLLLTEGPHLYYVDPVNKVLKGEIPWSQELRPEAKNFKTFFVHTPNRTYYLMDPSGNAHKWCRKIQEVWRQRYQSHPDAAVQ
Kind of test: PDK1 kinase inhibition assay (33P phosphorylation of synthetic peptide, filter plate). As to conditions: 0.01 mM ATP, 60 min at 30° C. How it is done:
(§1) The assay mixture containing the inhibitor and PDK1 enzyme was mixed together in a microtiter plate in a final volume of 50 μl and incubated for 60 min at 30° C. The assay mixture contained 0.01 mM unlabeled ATP, 0.01 μCi/μl ^33P-γ-ATP, 0.075 mM peptide, 0.1 mg/ml BSA, 7.5 mM magnesium acetate, 0.05M Tris.HCl, pH 7.5, 0.5% 2-mercaptoethanol. The reaction was stopped by adding 50 μl of 50 mM phosphoric acid. 90 μl of the mixture were transferred to a pre-wetted 96-well Multiscreen MAPHNOB filtration plate (Millipore) and filtered on a vacuum manifold. […] The filtration plate was dried for 10 min at 65° C., scintillant added and phosphorylated peptide quantified in a scintillation counter (Trilux, PerkinElmer)

The target of test [1] is CDK-2 enzyme, complexed with cyclin A (Homo sapiens, UniProt P24941). Kind of test: CDK2 enzyme inhibition assay (33P phosphorylation of peptide […], filter plate). As to conditions: CDK-2/cyclin A, 0.1 mM ATP, 40 min at 30° C. How it is done: as §1, with “and CDK-2 enzyme, complexed with cyclin A (0.4 U/ml)” for “and PDK1 enzyme”, “for 40” for “for 60”, “contained 0.1” for “contained 0.01”, “^33P-γ-ATP, 0.03” for “^33P-γ-ATP, 0.075”, “acetate, 50 mM HEPES-NaOH,” for “acetate, 0.05M Tris.HCl,”, “pH 7.5.” for “pH 7.5, 0.5% 2-mercaptoethanol.”
HEPES is N-[2-Hydroxyethyl]piperazine-N′-[2-ethanesulfonic acid] BSA is bovine serum albumin.

In the case of `Brc1cccc(-c2cc(NCc3ccncc3)n3nccc3n2)c1` [Example 3], the IC50 (in general, the concentration needed to halve the response being measured) stood at 29.6 µM at GST-Chk1 enzyme (read-out: Chk1 IC50) and 34.6 µM at PDK1 enzyme (read-out: PDK1 IC50). On to `CS(=O)(=O)c1ccc(Nc2cc(Cl)nc3ccnn23)cc1` [Example 15], for which the IC50 against GST-Chk1 enzyme (Chk1 IC50(μM)) and against PDK1 enzyme (PDK1 IC50(μM)) was over 200 µM in each case. In the case of `CS(=O)(=O)c1ccc(Nc2ccnc3ccnn23)cc1` [Example 19], the IC50 was 10.4 µM in test [1] and over 200 µM on PDK1 enzyme (read-out: PDK1 IC50). In the case of `CC(C)c1cnn2c(Nc3ccc(S(=O)(=O)N(C)C)cc3)cc(Cl)nc12` [Example 27], the IC50 in test [1] stood at 0.24 µM.

With `CC(C)c1cnn2c(Nc3ccc(S(=O)(=O)N(C)C)cc3)cc(N[C@H]3CC[C@H](N)CC3)nc12` [Example 30, 3-isopropyl-5-(trans-4-aminocyclohexylamino)-7-(4-(N,N-dimethylsulphonamido)phenylamino)pyrazolo[1,5-a]pyrimidine], the results for the IC50 on GST-Chk1 enzyme (read-out: Chk1 IC50) and on PDK1 enzyme (read-out: PDK1 IC50) were 5.51 µM and 19.9 µM, respectively. As to `CC(C)c1cnn2c(Nc3ccc(S(=O)(=O)N(C)CCN(C)C)cc3)cc(Cl)nc12` [Example 68], the IC50 in test [1] was 0.052 µM. In the case of `CC(C)c1cnn2c(Nc3ccc(S(=O)(=O)N(C)C)cc3)cc(N[C@H]3CC[C@@H](N)CC3)nc12` [Example 116], the IC50 on GST-Chk1 enzyme (read-out: Chk1 IC50) turned out to be 2.19 µM; at PDK1 enzyme (read-out: PDK1 IC50) it was 0.536 µM. On to `CC(C)c1cnn2c(Nc3ccc(S(=O)(=O)N(C)C)cc3)cc(C(=O)N3CCC(N)CC3)nc12` [Example 123], for which the IC50 in test [1] is 1.34 µM; at GST-Chk1 enzyme (read-out: Chk1 IC50) it was over 200 µM. With `CC(C)c1cnn2c(Nc3ccc(S(=O)(=O)N(C)C)cc3)cc(N3CCC(N)C3)nc12` (stereo not shown) [Example 129], it took 1.97 µM to reach half-maximal inhibition in test [1] (IC50).

For `CC(C)c1cnn2c(Nc3ccc(S(=O)(=O)N(C)C)cc3)cc(C(=O)N3CCC(N4CCCC4)CC3)nc12` [Example 130], half-maximal inhibition in test [1] (IC50) was put at 12.2 µM. In the case of `CC(C)c1cnn2c(Nc3ccc(S(=O)(=O)N(C)C)cc3)cc(C(=O)N3CCC(CN)CC3)nc12` [Example 131], in test [1], the IC50 was 9.37 µM. As for `CC(C)c1cnn2c(Nc3ccc(S(=O)(=O)N(C)C)cc3)cc(N[C@H]3CCCC[C@H]3N)nc12` [Example 132], the results for the IC50 (in test [1]; on PDK1 enzyme (read-out: PDK1 IC50)) were 3.63 µM and 10.4 µM, respectively. Turning to `CNC(=O)C1CCN(C(=O)c2cc(Nc3ccc(S(=O)(=O)N(C)C)cc3)n3ncc(C(C)C)c3n2)CC1` [Example 133], it took 5.17 µM to reach half-maximal inhibition in test [1] (IC50). `CC(C)c1cnn2c(Nc3ccc(S(N)(=O)=O)cc3)cc(N[C@H]3CC[C@H](N)CC3)nc12` [Example 134]: the IC50 in test [1] came out at 0.026 µM; on PDK1 enzyme (read-out: PDK1 IC50), 4.43 µM. As to `O=S(=O)(c1ccccc1)c1ccc(Nc2cc(Cl)nc3c(Br)cnn23)cc1` [Example 136], the results for the IC50 (in test [1]; at PDK1 enzyme (read-out: PDK1 IC50)) were 0.204 µM and 16 µM, respectively. On to `CN1CCN(S(=O)(=O)c2ccc(Nc3cc(Cl)nc4c(Br)cnn34)cc2)CC1` [Example 139], for which the 50% inhibitory concentration (IC50) was 0.176 µM in test [1] and over 50 µM at PDK1 enzyme (read-out: PDK1 IC50). Take `CCc1cnn2c(Nc3ccc(S(=O)(=O)N4CCCC4)cc3)cc(Cl)nc12` [Example 142]: the figures for the IC50 (in test [1]; on PDK1 enzyme (read-out: PDK1 IC50)) were 0.066 µM and over 200 µM, respectively. Turning to `CS(=O)(=O)c1ccc(Nc2cc(Cl)nc3c(Br)cnn23)cc1` [Example 144], the IC50 in test [1] is 0.23 µM; on PDK1 enzyme (read-out: PDK1 IC50), over 50 µM. Molecule `CC(C)c1cnn2c(Nc3ccc(S(=O)(=O)N(C)C)cc3)cc(CO)nc12` [Example 146] returned an IC50 in test [1] of 0.546 µM.

As for `CCc1cnn2c(Nc3ccc(S(=O)(=O)Nc4nccs4)cc3)cc(Cl)nc12` [Example 151], the IC50 in test [1] was 0.11 µM; at PDK1 enzyme (read-out: PDK1 IC50), 38 µM.

On to `CCc1cnn2c(Nc3ccc(C(=O)NCCN(CC)CC)cc3)cc(Cl)nc12` [Example 152], for which the IC50 in test [1] came out at 0.79 µM; at GST-Chk1 enzyme (read-out: Chk1 IC50), 32 µM.

The molecule `CC(C)c1cnn2c(NC3CCN(C(=O)OC(C)(C)C)CC3)cc(Cl)nc12` [Example 153] came in with an IC50 in test [1] of 3.44 µM. For the molecule `CNCCNC(=O)c1cc(Nc2ccc(S(=O)(=O)N(C)C)cc2)n2ncc(C(C)C)c2n1` [Example 155], the IC50 was 0.142 µM in test [1] and 53 µM on GST-Chk1 enzyme (read-out: Chk1 IC50). In turn, `CN(C)S(=O)(=O)c1ccc(Nc2cc(O[C@H]3CC[C@H](N)CC3)nc3c(Br)cnn23)cc1` [Example 158] displayed an IC50 in test [1] of 0.005 µM. In test [1], `CC(C)c1cnn2c(NC3CCN(S(=O)(=O)C(C)C)CC3)cc(Cl)nc12` [Example 159] had a concentration for half-maximal inhibition (IC50) of 1.17 µM. In test [1], `Clc1cccc(Nc2cc(Cl)nc3c(Br)cnn23)c1` [Example 160] had an IC50 of 0.108 µM.

In test [1], `Clc1cc(NCc2ccncc2)n2ncc(Br)c2n1` [Example 161] registered an IC50 of 0.23 µM. For `CN(C)S(=O)(=O)c1ccc(Nc2cc(N[C@H]3CC[C@H](N)CC3)nc3ccnn23)cc1` [Example 169], the IC50 was 0.098 µM in test [1] and 3.36 µM on PDK1 enzyme (read-out: PDK1 IC50). Consider `CC(C)c1cnn2c(Nc3ccc(S(=O)(=O)N(C)C)cc3)cc(CN3CCC(O)CC3)nc12` [Example 170], for which the IC50 in test [1] was 1.8 µM; at PDK1 enzyme (read-out: PDK1 IC50) it was over 200 µM. As to `CCc1cnn2c(Nc3ccc(S(=O)(=O)N(C)C)cc3)cc(NC3CC(C)(C)NC(C)(C)C3)nc12` [Example 175], the 50% inhibitory concentration (IC50) worked out at 22.2 µM in test [1] and 12.9 µM at PDK1 enzyme (read-out: PDK1 IC50). With `O=S(=O)(c1ccc(Nc2cc(N[C@H]3CC[C@H](O)CC3)nc3c(Br)cnn23)cc1)N1CCCC1` [Example 176], the IC50 worked out at 0.183 µM in test [1] and 3.25 µM on PDK1 enzyme (read-out: PDK1 IC50).

Turning to `N[C@H]1CC[C@@H](Nc2cc(Nc3ccc(S(=O)(=O)Nc4nccs4)cc3)n3ncc(Br)c3n2)CC1` [Example 177], the half-inhibitory concentration (IC50) on PDK1 enzyme (read-out: PDK1 IC50) was 0.66 µM. With `CC1(C)CC(Nc2cc(Nc3ccc(S(=O)(=O)N4CCCC4)cc3)n3ncc(Br)c3n2)CC(C)(C)N1` [Example 179], the IC50 in test [1] came to 24 µM; at PDK1 enzyme (read-out: PDK1 IC50) it was 4.54 µM.

For `O=S(=O)(c1ccccc1)c1ccc(Nc2cc(N[C@H]3CC[C@H](O)CC3)nc3c(Br)cnn23)cc1` [Example 182], the values for the IC50 (in test [1]; at PDK1 enzyme (read-out: PDK1 IC50)) were 0.248 µM and 3 µM, respectively. For the molecule `O=S(=O)(c1ccc(Nc2cc(Cl)nc3c(Cl)cnn23)cc1)c1cccs1` [Example 188], the concentration for half-maximal inhibition (IC50) in test [1] was 0.089 µM. Take `N[C@H]1CC[C@H](Nc2cc(Nc3ccc(Oc4cccnc4)cc3)n3ncc(Cl)c3n2)CC1` [Example 189]: the half-maximal inhibitory concentration (IC50) in test [1] came out at 0.028 µM. Consider `N[C@H]1CC[C@H](Nc2cc(Nc3ccc(Oc4ccc(F)cc4)cc3)n3ncc(Cl)c3n2)CC1` [Example 190], for which the midpoint of inhibition in test [1], the IC50, lay at 0.046 µM.

On to `CN(C)S(=O)(=O)c1ccc(Nc2cc(O[C@@H]3CCNC3)nc3c(Cl)cnn23)cc1` [Example 195], for which the values for the IC50 (in test [1]; on GST-Chk1 enzyme (read-out: Chk1 IC50)) were 0.24 µM and 7.79 µM, respectively. For the molecule `CN(C)S(=O)(=O)c1ccc(Nc2cc(N[C@H]3CC[C@@H](N)CC3)nc3c(S(C)(=O)=O)cnn23)cc1` [Example 200], the IC50 in test [1] amounted to 11.2 µM.

Values taken from US20070179161A1, “Pyrazolopyrimidine compounds and their use in medicine” (VERNALIS (CAMBRIDGE) LIMITED., priority 2003, published 2007).
